# Measurements taken from US8912121B2, “Herbicidal compositions comprising 4-amino-3-chloro-5-fluoro-6-(4-chloro-2-fluoro-3-methoxyphenyl)pyridine-2-carboxylic acid or a derivative thereof and certain PS II inhibitors” (Dow Agrosciences LLC, priority 2012, dated 2014).
# Key:
# [1] = test system: LEFCH (Leptochloa chinensis, Chinese sprangletop); experiment: Postemergence foliar-applied mixtures, direct seeded rice, greenhouse; type: in vivo, Leptochloa chinensis (L.) Nees; details: 22 DAA
# Excerpt: Seeds or nutlets of the desired test plant species were planted in a soil matrix prepared by mixing a loam or sandy loam soil (e.g., 28.6 percent silt, 18.8 percent clay, and 52.6 percent sand, with a pH of about 5.8 and an organic matter content of about 1.8 percent) and calcareous grit in an 80 to 20 ratio. The soil matrix was contained in plastic pots with a volume of 1 quart and a surface area of 83.6 square centimeters (cm^2). When required to ensure good germination and healthy plants, a fungicide treatment and/or other chemical or physical treatment was applied. The plants were grown for 8-22 days in a greenhouse with an approximate 14 h photoperiod which was maintained at about 29° C. during the day and 26° C. during the night. Nutrients (Peters Excel® 15-5-15 5-Ca 2-Mg and iron chelate) were applied in the irrigation solution as needed and water was added on a regular basis. Supplemental lighting was provided with overhead metal halide 1000-Watt lamps as necessary. The plants were employed for testing when they reached the first through fourth true leaf stage. […]
# (§1) Treatment requirements were calculated based upon the rates being tested, the concentration of active ingredient or acid equivalent in the formulation, and a 12 mL application volume at a rate of 187 L/ha.
# For treatments comprised of formulated compounds, measured amounts of compounds were placed individually in 25 mL glass vials and diluted in a volume of 1.25% (v/v) Agri-Dex® crop oil concentrated to obtain 12× stock solutions. […]
# (§2) For treatments comprised of formulated and technical compounds, weighed amounts of the technical materials were placed individually in 25 mL glass vials and dissolved in a volume of 97:3 v/v acetone/DMSO to obtain 12× stock solutions, and measured amounts of the formulated compounds were placed individually in 25 mL glass vials and diluted in a volume of 1.5% (v/v) crop oil concentrate or water to obtain 12× stock solutions. […]
# [2] = test system: ECHCG (Echinochloa crus-galli, barnyardgrass); experiment: Pre-emergence soil-applied mixtures, greenhouse; type: in vivo, Echinochloa crus-galli (L.) P. Beauv.
# Excerpt: Seeds or nutlets of the desired test plant species were planted in a soil matrix prepared by mixing a loam soil (32 percent silt, 23 percent clay, and 45 percent sand, with a pH of about 6.5 and an organic matter content of about 1.9 percent) and calcareous grit in an 80 to 20 ratio. The soil matrix was contained in plastic pots with a volume of 1 quart and a surface area of 83.6 square centimeters (cm^2).
# Treatments consisted of the benzyl ester of 4-amino-3-chloro-5-fluoro-6-(4-chloro-2-fluoro-3-methoxy-phenyl)pyridine-2-carboxylic acid (compound A) formulated as an SC (suspension concentrate) and various herbicidal components alone and in combination. Forms of compound A were applied on an acid equivalent basis.
# Other herbicidal components were applied on an acid equivalent or active ingredient basis and included the PSII-inhibiting herbicides, atrazine formulated as Atrazine® 90WDG, metribuzin formulated as Metribuzin 75DF, simazine formulated as Princep Caliber 90, tebuthiuron formulated as Spike 80DF, cyanazine (technical grade material), hexazinone (technical grade material), linuron (technical grade material), terbuthylazine (technical grade material), and diuron formulated as Diuron 4L.
# as §1
# For treatments comprised of formulated compounds, measured amounts of compounds were placed individually in 25 mL glass vials and diluted in a volume of 1.25% (v/v) Agri-Dex® crop oil concentrate (COC) to obtain 12× stock solutions. […] Application solutions were prepared by adding an appropriate amount of each stock solution (e.g., 1 mL) and diluted to the appropriate final concentrations with the addition of 10 mL of an aqueous mixture of 1.25% (v/v) COC so that the final spray solutions contained 1.25% (v/v) COC.
# For treatments comprised of technical compounds, weighed amounts can be placed individually in 25 mL glass vials and dissolved in a volume of 97:3 (v/v) acetone/DMSO to obtain 12× stock solutions. […]
# as §2, with “materials can be” for “materials were”, “97:3 (v/v)” for “97:3 v/v”, “compounds can be” for “compounds were”, “(v/v) COC” for “(v/v) crop oil concentrate”
compound,measurement,setting,value
"COc1c(Cl)ccc(-c2nc(C(=O)OCc3ccccc3)c(Cl)c(N)c2F)c1F [Compound A Benzyl Ester, benzyl ester of 4-amino-3-chloro-5-fluoro-6-(4-chloro-2-fluoro-3-methoxy-phenyl)pyridine-2-carboxylic acid]",Visual Weed Control (%) Obs,[1]; 8 g ae/ha,35%
same,Visual Weed Control (%) Obs,[1]; 16 g ae/ha,40%
same,Visual Weed Control (%)-28 DAA ECHCG Obs,[2]; Compound A Benzyl Ester 16 g ae/ha,0%
same,Visual Weed Control (%)-28 DAA ECHCG Obs,[2]; Compound A Benzyl Ester 32 g ae/ha,0%
